Experimental data taken from US20070026026A1 (priority 2005, published 2007).

Assays:
[1] = Example 2.2 C stability with PG, glycerin and xylitol at 50° C. (HPLC); format: physicochemical; conditions: after about 1 month at 50° C.
Experimental: Even with 30 percent glycerin present, in some embodiments it is desired to add additional sweetener as the composition may not be sweet enough for some patients. Accordingly, a stronger sweetener was considered for use in the composition. […] Thus, the stability of a composition of propylene glycol (PG), glycerin, and xylitol was studied and evaluated. […] PG (1.5 mL) was then added, this mixture was vortexed for 1 minute, 3 mL of glycerin was added, and this mixture was finally vortexed for 1 minute. […] Four different formulations were prepared and analyzed. Each sample was evaluated by HPLC. The samples were then stored at 50° C. for about 1 month and analyzed periodically.

[2] = Example 2.3 stability of saccharin-containing compositions at 50° C. (HPLC); format: physicochemical; conditions: for stability of losartan (percent active): saccharin sodium, 50° C.
Experimental: Two different concentrations of glycerin (30 percent and 40 percent by volume) and 2 different pHs of the phosphate buffer (7.4 and 8.2) were studied. Four different compositions that contained saccharin were prepared and analyzed. The materials used were losartan potassium; saccharin sodium; propylene glycol (PG); glycerin; and potassium phosphate buffer (PPB) prepared in-house. […] Three mL of PG were then added to the vortexed mixture, (17-X) mL of glycerin added, and this mixture vortexed for 2 minutes. X represents the amount in mL of PPB added to provide 17 mL. Each sample was then stored at 50° C. and evaluated by HPLC periodically.

[3] = Example 2.2 B stability with PG and glycerin or PG and PEG 400 at 50° C. (HPLC); format: physicochemical; conditions: for degradation: after 816 hours at 50° C.
Experimental: X represents the amount in mL of SPB added to provide 8.5 mL. […] Five different formulations were prepared and analyzed. Each sample was evaluated by HPLC. The samples were then stored at 50° C. for about 1 month and analyzed periodically.

[4] = Example 2.1 stability of losartan potassium in phosphate buffers at 50° C. (HPLC); format: physicochemical; conditions: for stability (percent active on a weight basis): 50° C.; for degradation of the original losartan: pH 7.4
Experimental: The three variables were the pH of the buffer, cation of the buffer, and concentration of the phosphate salt in the buffer. The pHs studied were 7.4 and 8.2; the cations studied were potassium and sodium; and the concentrations studied were 10 mM and 100 mM.
The materials used were sodium phosphate buffer (SPB) and potassium phosphate buffer (PPB) prepared in-house and losartan potassium. […] A sample of each solution was taken and analyzed by HPLC. The different solutions were then stored at 50° C. […] The stability (measured as percent active on a weight

[5] = cited from earlier work
[6] = Example 1.1 solubility of losartan potassium with and without buffering agent (visual); format: physicochemical; conditions: for solubility: thermodynamic from solid, visual
Experimental: After 24 hours, the samples were examined. […] Formulations at these pHs of about 7 or greater should prevent precipitation of the drug.

[7] = Example 2.2 A stability of losartan potassium in SPB with propylene glycol at 50° C. (HPLC); format: physicochemical; conditions: for degradation: after more than 1 month (816 hours) at 50° C.
Experimental: X represents the amount in mL of SPB added to provide 10 mL. […] Each formulation was evaluated by HPLC. The samples were then stored at 50° C. for about 1 month and analyzed periodically.

[8] = Another study (not described): PG and PEG 400 effect on stability of losartan potassium; format: physicochemical
Text: Therefore, in one embodiment PG is preferred over PEG 400.

[9] = Example 1.2 solubility of losartan potassium in sodium phosphate buffers by HPLC; format: physicochemical; conditions: for solubility at 0 h / solubility at 48 h / solubility at 480 h: sodium phosphate buffer, aqueous buffer, thermodynamic from solid, room temperature, HPLC
Text: The materials used were sodium phosphate buffer (SPB) prepared in-house and losartan potassium. […] A sample of each solution was then taken and analyzed by HPLC. […] Each sample was stored at room temperature and data was collected as a function of time.

CCCCc1nc(Cl)c(CO)n1Cc1ccc(-c2ccccc2-c2nnn[nH]2)cc1.[K] [losartan potassium, 2-butyl-4-chloro-1-[p-(o-1H-tetrazol-5-ylphenyl)benzyl]imidazole-5-methanol monopotassium salt]
degradation ([1]; 5 mg/mL, 1 percent xylitol): about 0.45%
degradation ([1]; 5 mg/mL, 2 percent xylitol): about 0.5%
degradation ([1]; 25 mg/mL, 1 percent xylitol): approximately 0.7%
degradation ([1]; 25 mg/mL, 2 percent xylitol): approximately 0.7%
stability of losartan (percent active) ([2]; 30% glycerin, PPB pH = 7.4, PG, 0 hour): 99.88%
stability of losartan (percent active) ([2]; 30% glycerin, PPB pH = 7.4, PG, 72 hours): 99.91%
stability of losartan (percent active) ([2]; 30% glycerin, PPB pH = 7.4, PG, 288 hours): 99.88%
stability of losartan (percent active) ([2]; 30% glycerin, PPB pH = 7.4, PG, 1152 hours): 99.65%
stability of losartan (percent active) ([2]; 30% glycerin, PPB pH = 8.2, PG, 0 hour): 99.88%
stability of losartan (percent active) ([2]; 30% glycerin, PPB pH = 8.2, PG, 72 hours): 99.88%
stability of losartan (percent active) ([2]; 30% glycerin, PPB pH = 8.2, PG, 288 hours): 99.89%
stability of losartan (percent active) ([2]; 30% glycerin, PPB pH = 8.2, PG, 1152 hours): 99.86%
stability of losartan (percent active) ([2]; 40% glycerin, PPB pH = 7.4, PG, 0 hour): 99.88%
stability of losartan (percent active) ([2]; 40% glycerin, PPB pH = 7.4, PG, 72 hours): 99.88%
stability of losartan (percent active) ([2]; 40% glycerin, PPB pH = 7.4, PG, 288 hours): 99.88%
stability of losartan (percent active) ([2]; 40% glycerin, PPB pH = 7.4, PG, 1152 hours): 99.73%
stability of losartan (percent active) ([2]; 40% glycerin, PPB pH = 8.2, PG, 0 hour): 99.88%
stability of losartan (percent active) ([2]; 40% glycerin, PPB pH = 8.2, PG, 72 hours): 99.88%
stability of losartan (percent active) ([2]; 40% glycerin, PPB pH = 8.2, PG, 288 hours): 99.92%
stability of losartan (percent active) ([2]; 40% glycerin, PPB pH = 8.2, PG, 1152 hours): 99.82%
degradation in words ([2]; saccharin-containing compositions, after 12 days (288 hours) and even at 1152 hours at 50° C.): Minimal degradation
degradation ([3]; SPB with 15 percent PG and 10 percent PEG 400): 0.33%
degradation ([3]; SPB with 15 percent PG and up to 30 percent glycerin): less than 0.5%
effect on stability in words ([3]; increasing PEG 400 to 30 percent in the composition, 50° C.): decreased the stability
stability (percent active on a weight basis) ([4]; PPB, 10 mM, pH = 7.4, 0 hours): 99.93%
stability (percent active on a weight basis) ([4]; PPB, 10 mM, pH = 7.4, 24 hours): 99.90%
stability (percent active on a weight basis) ([4]; PPB, 10 mM, pH = 7.4, 264 hours): 99.14%
stability (percent active on a weight basis) ([4]; PPB, 10 mM, pH = 7.4, 672 hours): 98.74%
stability (percent active on a weight basis) ([4]; PPB, 100 mM, pH = 7.4, 0 hours): 99.93%
stability (percent active on a weight basis) ([4]; PPB, 100 mM, pH = 7.4, 24 hours): 99.90%
stability (percent active on a weight basis) ([4]; PPB, 100 mM, pH = 7.4, 264 hours): 99.32%
stability (percent active on a weight basis) ([4]; PPB, 100 mM, pH = 7.4, 672 hours): 98.84%
degradation of the original losartan ([4]; SPB 10 mM, after about 1 month at 50° C.): around 1.5%
degradation of the original losartan ([4]; SPB 100 mM, after about 1 month at 50° C.): about 1%
stability (percent active on a weight basis) ([4]; SPB, 10 mM, pH = 7.4, 0 hours): 99.96%
stability (percent active on a weight basis) ([4]; SPB, 10 mM, pH = 7.4, 24 hours): 99.90%
stability (percent active on a weight basis) ([4]; SPB, 10 mM, pH = 7.4, 264 hours): 99.12%
stability (percent active on a weight basis) ([4]; SPB, 10 mM, pH = 7.4, 672 hours): 98.49%
stability (percent active on a weight basis) ([4]; SPB, 10 mM, pH = 8.2, 0 hours): 99.93%
stability (percent active on a weight basis) ([4]; SPB, 10 mM, pH = 8.2, 24 hours): 99.91%
stability (percent active on a weight basis) ([4]; SPB, 10 mM, pH = 8.2, 264 hours): 99.68%
stability (percent active on a weight basis) ([4]; SPB, 10 mM, pH = 8.2, 672 hours): 99.59%
stability (percent active on a weight basis) ([4]; SPB, 100 mM, pH = 7.4, 0 hours): 99.93%
stability (percent active on a weight basis) ([4]; SPB, 100 mM, pH = 7.4, 24 hours): 99.90%
stability (percent active on a weight basis) ([4]; SPB, 100 mM, pH = 7.4, 264 hours): 99.34%
stability (percent active on a weight basis) ([4]; SPB, 100 mM, pH = 7.4, 672 hours): 98.90%
stability (percent active on a weight basis) ([4]; SPB, 100 mM, pH = 8.2, 0 hours): 99.93%
stability (percent active on a weight basis) ([4]; SPB, 100 mM, pH = 8.2, 24 hours): 99.91%
stability (percent active on a weight basis) ([4]; SPB, 100 mM, pH = 8.2, 264 hours): 99.77%
stability (percent active on a weight basis) ([4]; SPB, 100 mM, pH = 8.2, 672 hours): 99.66%
degradation ([4]; SPB, pH of 8.2, after about 1 month at 50° C.): about 0.4%
solubility in alcohols [5]: soluble
solubility in chloroform [5]: practically insoluble
solubility in common organic solvents, such as acetonitrile and methylethyl ketone [5]: slightly soluble
solubility in water [5]: freely soluble
crystals after storage of the solubility sample ([6]; SPB pH 6.2, stored at 50° C. overnight, examined after 24 hours): crystals were observed
solubility ([6]; organic solvent or mixture, Ethanol): 130000 µg/mL
solubility ([6]; sodium phosphate buffer, aqueous buffer, SPB 10 mM, pH 1.9): 48 µg/mL
solubility ([6]; sodium phosphate buffer, aqueous buffer, SPB 10 mM, pH 6.2): > 241000 µg/mL
solubility ([6]; sodium phosphate buffer, aqueous buffer, SPB 10 mM, pH 7.2): 300000 µg/mL
solubility ([6]; sodium phosphate buffer, aqueous buffer, SPB 10 mM, pH 8.2): > 253000 µg/mL
solubility ([6]; Water, pH 5.5): > 243000 µg/mL
solubility ([6]; water with HCl, aqueous buffer, Water + HCl, pH 2.1): 280 µg/mL
solubility ([6]; water with NaOH, aqueous buffer, Water + NaOH, pH 11.8): > 239000 µg/mL
degradation ([7]; 10 percent PG in SPB pH 7.2): less than 0.4%
degradation ([7]; 15 percent PG in SPB pH 7.2): less than 0.4%
stability in words ([7]; 30 percent PG in SPB pH 7.2, 50° C.): unexpectedly good
effect of PEG 400 on stability ([8]; in SPB): improve the stability
effect of PG on stability ([8]; in SPB): improve the stability
effect of PEG 400 on stability ([8]; in water): did not improve the stability
precipitation on storage ([9]; SPB pH of 6.2): some re-precipitation was observed
solubility in words ([9]; pH under 6.2): practically insoluble
precipitation on storage ([9]; pHs of 7.4 and higher): no precipitation was observed
solubility at 0 h ([9]; SPB pH = 1.7): 1070 µg/mL
solubility at 48 h ([9]; SPB pH = 1.7): 152 µg/mL
solubility at 480 h ([9]; SPB pH = 1.7): 30 µg/mL
solubility at 0 h ([9]; SPB pH = 6.2): 1620 µg/mL
solubility at 48 h ([9]; SPB pH = 6.2): 1650 µg/mL
solubility at 480 h ([9]; SPB pH = 6.2): 60 µg/mL
solubility at 0 h ([9]; SPB pH = 7.4): > 250000 µg/mL
solubility at 48 h ([9]; SPB pH = 7.4): > 250000 µg/mL
solubility at 480 h ([9]; SPB pH = 7.4): > 250000 µg/mL
solubility at 0 h ([9]; SPB pH = 8.2): > 250000 µg/mL
solubility at 48 h ([9]; SPB pH = 8.2): > 250000 µg/mL
solubility at 480 h ([9]; SPB pH = 8.2): > 250000 µg/mL
